According to US20240366560A1, “SMALL MOLECULE TREATMENT OF FATTY LIVER DISEASE AND HCC” (ScandiEdge Therapeutics AB, priority 2021, published 2024):

Tests used:
PKLR = PKLR protein level by western blot in steatosis-induced HepG2, 7-day drug treatment; format: cell-based; conditions: steatosis-induced HepG2, 7 days of drug treatment, P<0.05, FIG. 2B
Method: WT HepG2 was included in this study and cultured by Roswell Park Memorial Institute (RPMI, R2405, Sigma Aldrich) 1640 Medium with 10% fetal bovine serum (FBS) and 1% penicillin-streptomycin (PS). To induce a steatosis model into WT HepG2 cells, high glucose Dulbecco's Modified Eagle Media (DMEM, D0822/D5671, Sigma-Aldrich) containing 10% FBS and 1% PS was used as medium for one week, together with 10 μg/mL insulin and 10 μM T0901317. All of cells were incubated in the incubator with 5% CO2 and 37° C. (Thermo SCIENTIFIC). Fresh medium was provided every two days.
As for drug-screening, different numbers of HepG2 cells were seeded for distinct experiments. More in details, 40,000 cells and 500,000 cells were used for 2-day-drug treatment in 96-well-plate and 6-well plate, respectively, while 80,000 cells and 300,000 cells were used for one-week drug treatment in 96-well plate and 6-well plate, respectively. Detailed drug dosages could be found in FIG. 5. Fresh medium was provided every two days.
Protein content levels were detected by western blot. After the respective treatment of drugs, the cell pellets were lysed in cell lytic M, followed by protein extraction from supernatant (10 min, 13,000r/min centrifuge). Extracted cell lysate was stored in −20° C. Proteins were quantified through Bovine albumin serum (BAS) standard curve with protein assay dye reagent (BIO-RAD). The proteins were separated by SDS-PAGE with 100v in 90 min by mini-protein TGX precast gels (4-15%, 15 wells, 15 μl/well, BIO-RAD), and then transfer to Mini PVDF transfer package through transfer system (Transfer-Turbo, BIO-RAD). After 30 min blocking with 5% skim milk in cold room (4° C.) and washing with TBST, membrane was cut by the size of interested proteins. Primary antibodies were added into the corresponding membrane sections for overnight binding. Then the membranes were washed with TBST, and the secondary antibodies were incubated for 1 h in cold room. The following antibody were used: (Goat pAb to Rb lg, ab205718, abcam; Rb pAb to beta-actin, ab8227, abcam; anti-pklr, HPA006653, SIGMA; Rb pAb to fatty acid synthase, ab99539, abcam). The bindings were imaged by immunostaining and machine (ImageQuant LAS 500). All antibodies were purchased from Abcam online, and βactin was used as global normalized protein. After measurement, the strength of signal for each protein was quantified by ImageJ. The background noise was removed, and all results were normalized by the levels of β-actin.
To further analyse the effect of these drugs on lipid accumulation via the DNL pathway, steatosis was induced to HepG2 by treating the cells with high glucose medium (DMEM), insulin and T0901317 (Hansmannel et al., 2006). […] Therefore, the effects of these two drugs on the de novo synthesis of lipids were investigated based on the steatosis-induced HepG2 model. […] Taken together, it was shown that BX-912 and JNK-IN-5A effectively alleviate the protein expression of PKLR and FASN as well as TG levels in HepG2 cell lines, and thus, it was decided to perform in vivo evaluations to test the effect of these two drugs.

steatosis-induced HepG2 = assay: Triglyceride assay in steatosis-induced HepG2; format: cell-based; conditions: steatosis-induced HepG2, 7 days of drug treatment, FIG. 2D
Method: All of cells were incubated in the incubator with 5% CO2 and 37° C. (Thermo […]). Fresh medium was provided every two days.

Sprague Dawley male rats [1] = assay: In vivo biosafety study: histopathological examination of major organs; set-up: species or system rat; conditions: 30 mg/kg oral, 7 days, CHOW
Method: (§1) In vivo biosafety studies. Healthy Sprague Dawley male rats (12 weeks old, 250-280 g) were obtained from Atatürk University Experimental Research Center (ATADEM, Erzurum Turkey) and housed under standard environmental conditions (temperature 20° C.-25° C., humidity 50±20% and 12-hour light/dark diurnal cycle). Food and water were available ad libitum. Rats were randomly separated into one control group and two experimental groups (30 mg/kg/day BX-912 or JNK-IN-5A, n=5). BX-912 and JNK-IN-5A were dissolved in DMSO and orally administrated using oral gavage for 7 days. The control group were received the same amount of vehicle solution only.
(§2) After 7 days, rats were anaesthetized, and blood samples were collected from the abdominal aorta for biochemical and haematological analysis. The plasma was separated and stored at −80° C. for further analysis. Major organs such as heart, kidney, liver, muscle, adipose, intestine (duodenum, ileum, jejunum), pancreas, colon, and stomach were collected from all the animals for further analysis. Selected organs were fixed in 10% neutral buffered formalin for histopathological examination.
Histopathological examination. The liver tissues were fixed in 10% buffered formaldehyde solution. After fixation, the tissues were passed through graded alcohol and xylene series and embedded in paraffin blocks. 5 micrometer thick sections were taken serially from the paraffin blocks. Histopathological changes were evaluated by performing hematoxylin eosin staining on the sections taken. Sections were evaluated according to histopathological findings as none (−), mild (+), moderate (++) and severe (+++).
To evaluate the potential toxicity of BX-912 and JNK-IN-5A in animals, three groups of 12-week-old rats (n=5) were raised. The first group was fed with CHOW (Ctrl) for seven days. The second group was fed with CHOW plus BX-912 (30 mg/kg) for seven days. The third group was fed with CHOW plus JNK-IN-5A (30 mg/kg) for seven days. After the seven days, all rats were sacrificed, and tissue samples from major organs and blood samples were collected for biosafety evaluation.

Sprague Dawley male rats [2] = assay: In vivo biosafety study: immunohistochemical 8-OH-dG examination of liver; set-up: species or system rat; conditions: 30 mg/kg oral, 7 days, CHOW
Method: as §1, §2
Immunohistochemical examination. After deparaffinization, the slides were immersed in antigen retrieval solution (pH 6.0) and heated in microwave for 15 min to unmask the antigens. The sections were then dipped in 3% H2O2 for 10 min to block endogenous peroxidase activity. […]

SMILES	protein expression level of PKLR (PKLR)	content of TGs (normalized by cell viability) (steatosis-induced HepG2)	histological structure of kidney, small intestine, large intestine, stomach, heart, pancreas, muscle tissues and liver (Sprague Dawley male rats [1])	side effects on the rats (overall conclusion) (Sprague Dawley male rats [1])	8-OH-dG expression in liver tissues (IHC) (Sprague Dawley male rats [2])
N#Cc1c(NC(=O)c2cccc3ccccc23)sc2c1CCCC2 [JNK-IN-5A, N-(3-cyano-4,5,6,7-tetrahydrobenzo [b]thien-2-yl)-1-naphthalenecarboxamide]	significantly decreased	significantly decreased	normal histological structures	no side effects	negative
O=C(Nc1cccc(Nc2ncc(Br)c(NCCc3cnc[nH]3)n2)c1)N1CCCC1 [BX-912, N-[3-[[5-bromo-4-[[2-(1H-imidazol-5-yl)ethyl]amino]-2-pyrimidinyl]amino]phenyl]-1-pyrrolidinecarboxamide]	significantly decreased	significantly decreased	normal histological structures	no side effects	negative
